# Experiments:
# GABAR α4 subunit = experiment: Western blot of α4 subunit in hippocampus after steroid and ethanol administration; type: in vivo, rat; conditions: 48 hours of exposure to 3α,5β-THP (10 mg/kg i.p.), saline
# Protocol: (§1) Animals were administered steroids using one of two protocols: (i) For the 48 hour steroid administration protocol, animals were injected with 10 mg/kg 3α, 5β THP in oil, i.p., on a daily basis for three days and sacrificed 1-2 hour following the final injection. Controls were injected with oil vehicle. […] At this time, the capsule was removed and the animals were injected with 17 β estradiol (2 μgs/animal) in order to reset their cycle. Animals were sacrificed 24 hours later. […] In all cases, implantation and removal of capsules were performed under halothane anesthesia. […] Therefore, this study employed the 5β isomer of the steroid.
# (§2) In some groups of animals, either ethanol (0.5 g/kg in saline) or saline vehicle was administered i.p. (3×, every 40 minutes) for the final 2 hours of the respective steroid administration or withdrawal paradigm. The use of multiple injections of low doses of ethanol would approximate ethanol consumption in the human more closely than would a single injection. For the 48 hour steroid administration paradigm, animals received their first ethanol injection immediately after the steroid injection, and subsequent injections at 40 minute intervals. In all cases, animals were sacrificed 40 minutes after the final ethanol injection (2 hours after the first ethanol injection and final steroid injection). All animal protocols were carried out with the approval of the Institutional Animal Care and Use Committee.
# Hippocampi removed from steroid or vehicle-treated animals were homogenized, and membranes prepared as previously described (65). Following electrophoresis on 8% SDS polyacrylamide gels, membranes were transferred to a nitrocellulose membrane (Bio-Rad, Hercules, Calif.). α4 subunit levels were detected by evaluating the band density at 67 kDa after probing with a polyclonal antibody (64). Membranes were incubated for 1-2 hours at room temperature with a 1:5000 dilution of horseradish peroxidase-conjugated donkey anti-rabbit IgG (Amersham, Arlington Heights, Ill.), and visualized with enhanced chemiluminescence with varying concentrations of protein in the linear range. Immunoreactive band densities were quantified using a CCD camera (UMAX Scanner) and one-Dscan software, which uses multiple Gaussian fits to achieve accurate band density profiles.
# [1] = system: GABAR of acutely dissociated CA1 hippocampal pyramidal neurons; experiment: Whole cell patch clamp, lorazepam modulation and decay of GABA-gated current after steroid/ethanol treatment; type: cell-based, rat
# Protocol: as §1, §2
# Currents were recorded using an Axopatch 1D amplifier (Axon Instruments) filtered at 2 kHz (four-pole Bessel filter) and detected at 500 Hz (pClamp 5.1).
# α4β2δ GABAA receptors [2] = target: T1, α4β2δ GABAA receptors (UniProt O14764+P63138+Q9D6F4); conditions: α4βδ receptors (ref. 6); cited from earlier work
# T1 construct: expressed in transfected cells
# T1 sequence (Q9D6F4 36-552): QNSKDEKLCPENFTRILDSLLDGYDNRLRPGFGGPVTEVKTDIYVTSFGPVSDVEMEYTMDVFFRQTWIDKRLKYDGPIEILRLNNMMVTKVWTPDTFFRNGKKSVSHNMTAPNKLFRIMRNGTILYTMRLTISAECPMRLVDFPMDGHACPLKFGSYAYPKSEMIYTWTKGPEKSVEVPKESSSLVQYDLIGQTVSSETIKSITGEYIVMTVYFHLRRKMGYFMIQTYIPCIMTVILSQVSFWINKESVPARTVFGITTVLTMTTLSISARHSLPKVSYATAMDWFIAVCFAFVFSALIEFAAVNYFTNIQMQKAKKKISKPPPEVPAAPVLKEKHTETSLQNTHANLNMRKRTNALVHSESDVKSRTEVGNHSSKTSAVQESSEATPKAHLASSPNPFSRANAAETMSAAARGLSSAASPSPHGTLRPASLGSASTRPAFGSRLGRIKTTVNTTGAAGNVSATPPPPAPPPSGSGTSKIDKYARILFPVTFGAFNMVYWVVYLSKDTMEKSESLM
# T1 sequence (P63138 25-474 limits assumed): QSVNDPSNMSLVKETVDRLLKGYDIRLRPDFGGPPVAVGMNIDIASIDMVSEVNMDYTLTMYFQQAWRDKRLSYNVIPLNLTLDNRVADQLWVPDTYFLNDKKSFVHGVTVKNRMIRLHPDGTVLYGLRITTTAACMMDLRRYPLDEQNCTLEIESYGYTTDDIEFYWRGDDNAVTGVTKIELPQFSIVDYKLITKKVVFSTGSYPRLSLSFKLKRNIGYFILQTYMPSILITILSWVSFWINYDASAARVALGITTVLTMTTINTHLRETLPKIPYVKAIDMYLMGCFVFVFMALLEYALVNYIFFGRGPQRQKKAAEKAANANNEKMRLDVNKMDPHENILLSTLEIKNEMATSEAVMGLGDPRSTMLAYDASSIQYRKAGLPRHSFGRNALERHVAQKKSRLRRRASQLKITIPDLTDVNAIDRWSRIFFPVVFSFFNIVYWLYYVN
# T1 sequence (O14764 17-452 limits assumed): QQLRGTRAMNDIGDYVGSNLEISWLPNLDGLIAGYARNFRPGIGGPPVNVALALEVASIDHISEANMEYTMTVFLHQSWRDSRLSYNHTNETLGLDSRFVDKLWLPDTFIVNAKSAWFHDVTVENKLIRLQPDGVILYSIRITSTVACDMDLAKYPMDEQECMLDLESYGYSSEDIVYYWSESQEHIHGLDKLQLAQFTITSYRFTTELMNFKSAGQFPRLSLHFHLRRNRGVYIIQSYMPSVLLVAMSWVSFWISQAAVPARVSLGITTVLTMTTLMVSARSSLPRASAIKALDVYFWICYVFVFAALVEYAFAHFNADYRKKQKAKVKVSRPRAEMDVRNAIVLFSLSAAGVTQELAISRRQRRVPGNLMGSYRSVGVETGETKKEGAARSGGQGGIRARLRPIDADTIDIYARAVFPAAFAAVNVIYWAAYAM
# [3] = system: GABAA receptors of acutely isolated CA1 hippocampal pyramidal cells; experiment: Whole cell patch clamp, ethanol or THIP effect on GABA-gated current; type: cell-based, rat; conditions: after progesterone withdrawal
# Protocol: Pyramidal neurons were acutely dissociated from CA1 hippocampus and GABA-gated Cl^− currents analyzed using whole cell patch clamp procedures as previously described (67). Briefly, tissue was digested at 32° C. for 50-60 minutes under 100% O2 in PIPES-buffered saline containing (in mM): NaCl 120, KCl 5, CaCl2 1, MgCl2 1, D-glucose 25, PIPES 20 and trypsin (type XI, sigma) 0.8 mg/ml, pH 7.0. After 1 hour of enzyme-free incubation at room temperature, tissue was dissociated by trituration in 1 ml of 20 mM HEPES-buffered DMEM which was replaced by recording medium after transfer to the recording chamber. GABA-gated currents were recorded at room temperature (20-25° C.) at a holding potential of −50 mV in a bath containing (in mM): NaCl 120, CsCl 5, CaCl2 2, MgCl2 1, TEA Cl 15, 4-aminopyridine 5, HEPES 10 and glucose 25, pH 7.4, 320 mOsm/kg H2O. The pipette solution contained (in mM): N-methyl-D-glucamine chloride 120, Cs4BAPTA 5 and Mg-ATP 5. The ATP regeneration system Tris phosphocreatine (20 mM) and creatine kinase were added to minimize GABA rundown. All drugs were obtained from Sigma Chemical Co, (St. Louis, Mo.), except for BAPTA (Calbiochem, San, Diego, Calif.).
# Peak currents were calculated for all drug concentrations as relative to the current gated by 10 μM GABA alone using the equation: ([peak current: GABA+ETOH]−[peak current: GABA alone])/[peak current: GABA alone]. Currents were recorded using an Axopatch 1D amplifier (Axon Instruments) filtered at 2 kHz (four-pole Bessel filter) and detected at 500 Hz (pClamp 5.1).
# Following progesterone withdrawal or control conditions, pyramidal cells were acutely isolated from CA1 hippocampus as described (65,64). GABA-gated Cl^− currents were recorded using whole cell patch clamp techniques at a holding potential of −50 mV.
# female Long Evans rats = experiment: Acoustic startle response (ASR); type: in vivo, rat; conditions: THIP 3 mg/kg i.p.
# Protocol: Animals were tested in a stabilimeter device (SR-Lab Startle Response System, San Diego Instruments, Inc., San Diego, Calif.) that permits vertical movement of a Plexiglas platform contained within a lit, well-ventilated sound-attenuating chamber (26). The amplitude of movement is detected by a piezoelectric device with a voltage output proportional to platform displacement. The analog output of the accelerometer is then amplified and digitized before computer analysis. Five minutes after i.p. administration of 10% ethanol (0.05-1.6 g/kg) or saline vehicle (1.5 ml volume) or 25 minutes after 4,5,6,7-tetrahydroisoxazolo[5,4-c]pyridin-3-ol injection (3 mg/kg, i.p.), animals were placed in the chamber for a 5 minutes acclimation period. […] Four acoustic stimuli (116 dB, 40 ms duration) were then presented at random intervals once every 10-15 seconds via a white-noise generator through speakers positioned on either side of the cage. […] For each acoustic stimulus, the amplitude and integrated response (amplitude and duration) were determined and normalized to the weight of the animal. Values for the integrated response after administration of each dose of ethanol or 4,5,6,7-tetrahydroisoxazolo[5,4-c]pyridin-3-ol were averaged and expressed as a fraction of the saline control average for the indicated treatment (progesterone withdrawal versus control) group in order to minimize variability between groups. […] It is also routinely used to assess behavioral excitability after withdrawal from BDZs and ethanol (73).
# Animals were tested in a stabilimeter device (SR-Lab Startle Response System, San Diego Instruments, Inc.) that permitted vertical movement of a Plexiglas cage contained within a lit, well-ventilated, sound-attenuating chamber. The amplitude of movement was detected by a piezoelectric device with a voltage output proportional to cage displacement. The analog output of the accelerometer was amplified and digitized before computer analysis (15). Five minutes following intraperitoneal administration of alcohol (0.2 or 0.4 g/kg) or saline vehicle (1.5 ml volume), animals were placed in the chamber for 5 a minute acclimation period. Five acoustic stimuli (116 dB, 40 msec duration) were then presented once every 10-15 seconds via a white-noise generator through speakers positioned on either side of the cage. For each acoustic stimulus, the integrated response (amplitude and duration) was averaged across a 100 msec post-stimulus time period and the response latency determined. Both values were normalized to the weight of the animal. Values for the integrated response for the first noise stimulus following administration of each dose of alcohol were averaged and expressed as a fraction of the saline control average for the indicated treatment (P Wd versus control) group. […] It is routinely used to assess behavioral excitability following withdrawal from benzodiazepiness (48) and alcohol (73), and is known to be modified by GABA modulators, such as diazepam (11), and by local infusion of excitatory compounds into dorsal hippocampus (85).
# α4β2δ GABAA receptors [4] = target: T1, α4β2δ GABAA receptors; experiment: Two-electrode voltage-clamp of recombinant GABAA receptors in oocytes; type: cell-based
# α1β2 receptors = target: T2, α1β2 receptors (Rattus norvegicus, UniProt P62813+P63138); experiment: as above; type: cell-based, expressed in Xenopus laevis oocytes; conditions: 1 μM zinc; n=5
# T2 construct: expressed in transfected cells; host or cells: oocytes injected with cRNA (Xenopus laevis is named only)
# T2 sequence (P62813 28-455): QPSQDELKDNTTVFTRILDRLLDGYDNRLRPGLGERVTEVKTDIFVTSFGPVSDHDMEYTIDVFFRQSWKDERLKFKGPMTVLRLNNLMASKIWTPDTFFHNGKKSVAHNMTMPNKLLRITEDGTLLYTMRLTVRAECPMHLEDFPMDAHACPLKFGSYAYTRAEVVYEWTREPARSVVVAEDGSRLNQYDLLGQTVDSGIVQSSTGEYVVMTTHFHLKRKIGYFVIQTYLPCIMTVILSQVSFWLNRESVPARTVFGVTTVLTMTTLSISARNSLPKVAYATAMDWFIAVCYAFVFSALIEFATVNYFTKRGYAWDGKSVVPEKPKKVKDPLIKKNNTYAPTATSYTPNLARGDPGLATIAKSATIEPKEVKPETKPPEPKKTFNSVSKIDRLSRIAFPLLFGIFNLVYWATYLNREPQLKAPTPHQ
# T2 sequence (P63138 25-474 limits assumed): as the sequence (P63138 25-474 limits assumed) above
# From the text: (§3) Plasmids with inserts encoding GABAA receptor subunit sequence for rat α1 (62), rat β2 (83), rat α2 (62), rat α5 (62), mouse α4 (37), mouse β3 (82), rat β1 (83), rat γ2S (63), human δ (12), and human ε (11) were produced by subcloning each separately into an appropriate cloning vehicle such as PCDM8, pCDNA3.1 or pGHEMHE vectors (Invitrogen, Carlsbad Calif.) using a T7 promoter and standard subcloning techniques (59). Plasmids were linearized with an appropriate restriction enzyme at a site 3′ to the insert and cRNAs were synthesized using T3 or T7 polymerase (mMessage mMachine, Ambion, Tex.). The size of the cRNA was verified and RNA was quantified by ethidium bromide staining after electrophoresis on 1% agarose gels.
# The preparation, injection, and maintenance of oocytes were carried out as described previously (78). […]
# Voltage-clamp recording was carried out 1 to 3 days after injection of cRNAs. […] Oocytes were voltage-clamped at −70 mV and macroscopic currents were recorded with a two-electrode voltage-clamp using a Warner Instruments OC-725 amplifier as described previously (79). Currents were recorded on a chart recorder or by using Axograph on a Macintosh computer. […]
# [5] = target: T3, α1β2δ receptors (oocytes injected with α1+β2+δ) (UniProt O14764+P62813+P63138); type: cell-based, rat α1, rat β2, human δ, expressed in Xenopus laevis oocytes; conditions: 1 μM zinc; 7 of 22 oocytes injected with α1+β2+δ
# T3 construct: expressed in transfected cells; host or cells: oocytes injected with cRNA (Xenopus laevis is named only)
# T3 sequence (P62813 28-455): as the sequence (P62813 28-455) above
# T3 sequence (P63138 26-474): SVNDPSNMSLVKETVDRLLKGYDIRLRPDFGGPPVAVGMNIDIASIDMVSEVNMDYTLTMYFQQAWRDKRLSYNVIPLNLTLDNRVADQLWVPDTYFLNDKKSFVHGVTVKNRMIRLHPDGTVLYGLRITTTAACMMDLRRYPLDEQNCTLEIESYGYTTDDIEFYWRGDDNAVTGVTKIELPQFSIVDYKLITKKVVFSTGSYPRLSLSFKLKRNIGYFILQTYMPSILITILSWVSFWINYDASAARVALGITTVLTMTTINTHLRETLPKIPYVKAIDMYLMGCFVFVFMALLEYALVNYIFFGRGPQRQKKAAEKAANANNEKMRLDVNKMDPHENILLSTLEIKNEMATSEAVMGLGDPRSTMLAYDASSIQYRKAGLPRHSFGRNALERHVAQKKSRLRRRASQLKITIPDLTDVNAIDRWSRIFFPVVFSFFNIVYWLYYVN
# T3 sequence (O14764 25-452): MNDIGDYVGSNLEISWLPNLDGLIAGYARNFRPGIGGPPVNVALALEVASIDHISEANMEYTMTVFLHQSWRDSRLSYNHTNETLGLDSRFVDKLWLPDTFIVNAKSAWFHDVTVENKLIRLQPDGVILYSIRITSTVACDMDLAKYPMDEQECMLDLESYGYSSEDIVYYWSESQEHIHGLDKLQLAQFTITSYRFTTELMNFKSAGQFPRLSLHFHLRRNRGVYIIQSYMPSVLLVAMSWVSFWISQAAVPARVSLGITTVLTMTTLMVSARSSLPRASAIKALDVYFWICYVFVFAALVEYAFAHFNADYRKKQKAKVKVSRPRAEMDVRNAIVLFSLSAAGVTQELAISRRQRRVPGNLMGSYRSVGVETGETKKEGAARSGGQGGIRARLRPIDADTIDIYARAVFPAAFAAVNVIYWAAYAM
# From the text: as §3
# (§4) The preparation, injection, and maintenance of oocytes were carried out as described previously (78). Oocytes were injected with receptor subunit cRNAs (2 to 20 ng) in the following ratios: α1:β1:γ2S, α1:β2:γ2S and α1:β1:ε1, 1:1:1; α2:β1:γ2S, α5:β1:γ2S, α4:β1:γ2S, and α4:β2:γ2S, 10:1:1; α4:β1:δ, α4:β2:δ, α4:β3δ, 10:1:10; α1:β2:δ, 1:1:10 or 1:0.5:3; α1:β1:δ, 1:1:10 or 1:0.5:3; α2:β1:δ and α2:β2:δ, 1:0.5:3; α1:β1, α1:β2, α2:β1, α2:β2, β2:γ2S and α4δ, 1:1, α4:β1, α4:β2, α4:β3, 10:1, β2δ, 1:10.
# (§5) Voltage-clamp recording was carried out 1 to 3 days after injection of cRNAs. Electrodes were filled with 3 M KCl and had resistances of 0.4-4 MΩ. Oocytes were positioned in a small Perspex chamber and continuously superfused with a saline solution (100 mM NaCl, 2 mM KCl, 1.8 mM CaCl2, 10 mM HEPES, pH 7.5). Agonists and modulators were both applied in the same saline solution. Oocytes were voltage-clamped at −70 mV and macroscopic currents were recorded with a two-electrode voltage-clamp using a Warner Instruments OC-725 amplifier as described previously (79). Currents were recorded on a chart recorder or by using Axograph on a Macintosh computer.
# (§6) Other subunits (α1, α2, β1, β2) were tested for co-expression with the δ subunit. […]
# [6] = target: T4, α1β2δ receptors (oocytes injected with α1+β2+δ) (Rattus norvegicus, UniProt P62813+P63138); type: cell-based, human δ, expressed in Xenopus laevis oocytes; conditions: 1 μM zinc; the other 15 oocytes injected with α1+β2+δ
# T4 construct: expressed in transfected cells; host or cells: oocytes injected with cRNA (Xenopus laevis is named only)
# T4 sequence (P62813 28-455): as the sequence (P62813 28-455) above
# T4 sequence (P63138 26-474): as the sequence (P63138 26-474) above
# From the text: as §3, §4, §5, §6
smiles,measurement,setting,value
"CC(=O)[C@H]1CC[C@H]2[C@@H]3CC[C@@H]4C[C@H](O)CC[C@]4(C)[C@H]3CC[C@]12C [3α, 5β-THP]",increase of α4 expression compared to control,GABAR α4 subunit,threefold
"O=C1Nc2ccc(Cl)cc2C(c2ccccc2Cl)=NC1O (stereo not shown) [LZM, lorazepam]",maximal potentiation of GABA-gated current,"[1]; 10 μM LZM, 48 h 3α,5β-THP with 2 h ethanol",90%
same,potentiation of GABA-gated current,"[1]; 10 μM LZM, 48 h 3α,5β-THP, saline-treated rats",12-15%
same,LZM-induced potentiation of GABA-gated current,[1]; 2 hours of ethanol after progesterone withdrawal,robust
"Oc1noc2c1CCNC2 [THIP, 4,5,6,7-tetrahydroisoxazolo[5,4-c]pyridin-3-ol]",maximum current compared to that gated by GABA at α4βδ,α4β2δ GABAA receptors [2],greater maximum current
same,efficacy of THIP relative to GABA (maximum current),[3],increased efficacy
same,attenuation of ASR,female Long Evans rats; P withdrawn animals,70%
same,increase of ASR,female Long Evans rats; control animals,about 40%
same,ratio of currents induced by THIP:GABA,α4β2δ GABAA receptors [4]; oocytes injected with α4+β2+δ subunits,1.24
[La] [lanthanum],inhibition of currents at α4β2δ receptors,α4β2δ GABAA receptors [4]; La3+ 300 μM,80%
[Zn] [zinc],zinc inhibition of GABA currents,α1β2 receptors,72.4±6.9%
same,zinc inhibition of GABA currents,[5],49.1±6.4%
same,zinc inhibition of GABA currents,[6],66.4±6.4%

# Reference: US7816074B2, “α4 β2 δGABA-A receptors as a strategy for PMS and alcoholism” (priority 2003, dated 2010)
